Tests used:
HIV-1 capsid protein = target: T1, HIV-1 capsid protein (Human immunodeficiency virus type 1 group M subtype B, UniProt P12493); test: biochemical; format: binding
T1 construct: aqueous solutions containing recombinant, ^15N-labeled HIV-1 capsid protein
Procedure: Capsid protein ligands are also evaluated by NMR to determine their equilibrium dissociation constant from the capsid binding site.
Concentrated DMSO-d6 solutions of test compounds are prepared for NMR analysis. 2D ^1H-^15N HSQC NMR spectra are obtained for aqueous solutions containing recombinant, ^15N-labeled HIV-1 capsid protein and 10 microliters of added test compound. Data is obtained using a 600 MHz NMR instrument equipped with a cryoprobe. […] Binding is indicated by perturbation relative to capsid protein alone (^1HN δδ>0.1 ppm; ^15N δδ>0.5 ppm) of the chemical shifts of the following residues: Glu29, Lys30, Ala31, Phe32, Ser33, Glu35, Val36, Val59, Gly60, Gly61, His62, Gln63, Ala65, Met144 and Tyr145, all located at or near the apex of a helical bundle (helices 1, 2, 3, 4 and 7).
Equilibrium dissociation constants are calculated from 2D NMR data of selected capsid ligands. […] The chemical shift changes of perturbed by test compound binding are fit to 1:1 binding isotherms.

CA = CA (Human immunodeficiency virus type 1 group M subtype B, UniProt P12493); test: mass action calculation of CAP-1 bound to CA/Gag in immature virions; parameters: species or system HIV-1
Procedure: This is likely due to the high local concentration of Gag molecules in assembled virions (14 mM), which favors binding by ligands with even modest affinities, e.g., N-(3-chloro-4-methylphenyl)-N′-[2-[([5-[(dimethylamino)-methyl]-2-furyl]-methyl)-sulfanyl]ethyl]urea (CAP-1).
Thus conservatively assuming that cytosolic drug concentrations in the budding virus and cells are equal (100 μM), the percentage of viral CAP-1 molecules bound to CA can be estimated by standard mass action calculations which affords a value for the concentration of bound CAP-1 ([CA:CAP-1]) of 94 μM.

## Cc1ccc(NC(=O)NCCSCc2ccc(CN(C)C)o2)cc1Cl [CAP-1, N-(3-chloro-4-methylphenyl)-N′-[2-[([5-[(dimethylamino)-methyl]-2-furyl]-methyl)-sulfanyl]ethyl]urea]
HIV-1 capsid protein
  Kd: 820 ± 180 µM
HIV-1 capsid protein; recombinant 15N-labeled HIV-1 capsid protein
  binding to the HIV-1 capsid protein (HSQC chemical shift perturbation): site-specific binding
CA; 100 μM dose
  CAP-1 molecules in immature virions bound to Gag: 94%
CA; assuming drug concentration 100 μM, Gag in assembled virions 14 mM
  concentration of bound CAP-1 ([CA:CAP-1]): 94 µM
